Results as given in patent US20140234227A1, “FOAM FORMULATIONS” (OTIC PHARMA LTD, priority 2011, published 2014).
Structures can show the parent of a compound that is named as a salt.

How the values were obtained:
Assay in all cases: Antibiotics-Microbial Assay - Zone of Growth Inhibition
Assay type in all cases: cell-based
[1] = tested on: S. aureus (ATCC No. 6538); details: Staph. Aureus, LB-agar, 24 hrs at 37° C.
Protocol: (§1) In this assay the diameter (halo) of bacterial growth inhibition around filters soaked with a test item was measured and compared to a standard solution of antibiotic. For this end, sterile Microbiological cotton swabs were soaked with cultures of E. Coli (ATCC No. 8739), S. aureus (ATCC No. 6538) or of Pseudomonas aeruginosa (ATCC No. 9027) and evenly spread on top of LB-agar plates. Filters soaked with the tested formulation were placed on top of the plates and the plates were further incubated for 24 hrs. The diameter (halo) of growth inhibition around each filter was measured after 24 hrs of incubation at 37° C. A solution that contained the same concentration of Ciprofloxacin Hydrochloride (0.35%) as in the formulation tested was used as a control.

[2] = tested on: Pseudomonas aeruginosa (ATCC No. 9027); details: LB-agar, 24 hrs at 37° C.
Protocol: as §1

E. Coli (ATCC No. 8739) = details: LB-agar, 24 hrs at 37° C.
Protocol: as §1

## O=C(O)c1cn(C2CC2)c2cc(N3CCNCC3)c(F)cc2c1=O [Ciprofloxacin HCl solution (0.35%), monohydrochloride monohydrate salt of 1-cyclopropyl-6-fluoro-1,4-dihydro-4-oxo-7-(1-piperazinyl)-3-quinolinecarboxylic acid]
[1]
  diameter of growth inhibition: 4.7 cm
[2]
  diameter of growth inhibition: 4.85 cm
E. Coli (ATCC No. 8739)
  diameter of growth inhibition: 3.6 cm
